Experimental data from publication PMC8201735 (BMC Pharmacology & Toxicology, 2021).
Where two headings read alike, the source gives them in different places.

Experiments:
subjects with T2DM [1] = experiment: Surveillance for lactic acidosis: fasting plasma lactic acid concentration; type: in vivo, human
Experimental: The samples for acidosis analysis were collected at screening (following an overnight fast and prior to morning dose), once during the run-in phase, at baseline (Day- 1), mornings (prior to first dose and breakfast) of Days 1, 2, 3, and 4 (inpatient) and Days 6, 8, and 10 (outpatient) and Days 13 and 14 (inpatient). Subjects were not allowed to do rigorous exercise or physical labor during the treatment phase of the study and instructed to limit exercise 12 h before sampling.
(§1) Descriptive statistics were used to summarize baseline demographics, safety data, and pharmacokinetic parameters. Geometric mean and % CVb (between-subject coefficient of variation) were calculated for all pharmacokinetic parameters except tmax. Comparisons of placebo with each active dose of RE were assessed in terms of change from baseline in fasting plasma lactate acid using repeated measures analysis of covariance model. The model included terms for baseline measurement, visit, treatment and visit-by-treatment interaction. The same model was applied to change from baseline in weighted means of day-time, night-time and 0–24 h of blood pressures. Within group treatment comparison was performed using mixed model on log transformed Cmax and AUC (0-last).

subjects with T2DM [2] = experiment: Oral glucose tolerance test (75 g): weighted mean plasma glucose and insulin; type: in vivo, human; settings: Day -1 (baseline); Placebo + Metformin
[3] = Plasma pharmacokinetics of metformin with and without RE; type: in vivo, human; settings: for AUC / Cmax: human, plasma, oral, geometric mean; for AUC: Metformin AUC (0-tau); for Cmax: Metformin Cmax
Experimental: as §1, with “PK analysis was conducted by […] (Chapel Hill, NC, USA), under the direction of Clinical Pharmacokinetics/Modelling and Simulation, GSK using the non-compartmental analysis Model 200 (for extra vascular administration) of WinNonlin Professional Edition version 4.1 (Pharsight Corporation, Mountain View, CA). […] Descriptive” for “Descriptive”, “0-24” for “0–24”

Body weight = type: in vivo, human; settings: Placebo + Metformin
Experimental: Body weight measurement was performed at screening and during inpatient Days- 1, 2, 4, 8, 13, and 14.

subjects with T2DM [4] = settings: RE 500 mg BID and metformin 500 mg BID for 3 days; cited from earlier work
[5] = Fluid balance assessment (intake - urine output); type: in vivo, human; settings: Placebo + Metformin
subjects with T2DM [6] = experiment: Adverse event monitoring, RE co-administered with metformin for 13 days; type: in vivo, human
From the text: The study was comprised of three phases; run-in, randomization, and treatment. […] In treatment phase the patients were considered in two cohorts. […] The adverse events monitoring included recording of any adverse event (AE) and serious adverse event (SAE) reported or observed during the entire study and follow-up period. All the subjects were counseled to inform study staff of any AEs that occurred during the study. Any abnormal laboratory findings (e.g., clinical chemistry, hematology, and urinalysis) or other abnormal assessments (e.g., ECGs, vital signs, physical examination) that were judged by the investigator as clinically significant were recorded as AEs or SAE.

subjects with T2DM [7] = experiment: Oral glucose tolerance test (75 g): weighted mean plasma glucose and insulin; type: in vivo, human; settings: Placebo + Metformin
Experimental: Oral glucose tolerance testing was performed on Day 1 and Day 13 using a 75 g oral glucose solution. Blood samples for the measurement of insulin and glucose were taken immediately before drug dosing (within 5 min of drug dosing), and at 30 min, 1, 1.5, 2, 3, 4, and 6 h following drug dosing.

[8] = Plasma pharmacokinetics of remogliflozin etabonate and its metabolites during metformin treatment; type: in vivo, human; settings: for AUC / Cmax / Tmax: human, plasma; for AUC: read-out: AUC(0-tau), geometric mean (%CVb); for Cmax: read-out: Cmax, geometric mean (%CVb)
Experimental: as §1, with “PK analysis was conducted by […] (Chapel Hill, NC, USA), under the direction of Clinical Pharmacokinetics/Modelling and Simulation, GSK using the non-compartmental analysis Model 200 (for extra vascular administration) of WinNonlin Professional Edition version 4.1 (Pharsight Corporation, Mountain View, CA). […] Descriptive” for “Descriptive”, “0-24” for “0–24”

[9] = Day 13, Metformin + Placebo group
[10] = Day 13 Metformin + RE 750 mg BID
[11] = Day -1 metformin alone, Metformin + Placebo group
[12] = Day -1 metformin alone, Metformin + RE 500 mg group
[13] = Day 13 Metformin + RE 500 mg BID
[14] = Day -1 metformin alone, Metformin + RE 750 mg group
[15] = Placebo BID + metformin, N = 17
[16] = oral, 500 mg, Day 1, after RE 500 mg BID + metformin, N = 16
[17] = oral, 500 mg, Day 13, after RE 500 mg BID + metformin, N = 15
[18] = oral, 750 mg, Day 1, after RE 750 mg BID + metformin, N = 17
[19] = oral, 750 mg, Day 13, after RE 750 mg BID + metformin, N = 16

CN(C)C(=N)N=C(N)N [Metformin, metformin, reference compound]
Fasting plasma lactic acid, maximum on-therapy absolute values, Mean (SD) (subjects with T2DM [1]; Placebo BID + metformin): 1.554 (0.5094) mmol/L
Fasting plasma lactic acid, maximum on-therapy change from baseline, Mean (SD) (subjects with T2DM [1]; Placebo BID + metformin): 0.460 (0.2289) mmol/L
Fasting plasma lactic acid change from baseline, Mean (SD) (subjects with T2DM [1]; Study Day 2, Placebo BID + metformin): 0.16 (0.266) mmol/L
Fasting plasma lactic acid change from baseline, Mean (SD) (subjects with T2DM [1]; Study Day 6, Placebo BID + metformin): 0.08 (0.288) mmol/L
Fasting plasma lactic acid change from baseline, Mean (SD) (subjects with T2DM [1]; Study Day 13, Placebo BID + metformin): 0.00 (0.304) mmol/L
Subjects with lactic acid greater than the upper limits of normal (ULN) at any time (subjects with T2DM [1]; while receiving metformin alone, not sustained, minimally above ULN): four
Weighted mean plasma insulin following OGTT, Mean (SD) (subjects with T2DM [2]): 176.85(104.735) pmol/L
Metformin Cmax, geometric mean [3, 9]: 2041 ng/mL
Metformin tmax, median [3, 9]: 2.5 h
Metformin Cmax, geometric mean [3, 10]: 1695 ng/mL
Metformin tmax, median [3, 10]: 2.0 h
Metformin tmax, median [3, 11]: 2.0 h
Metformin tmax, median [3, 12]: 3.0 h
AUC [3, 9]: 14000 ng·h/mL
AUC [3, 13]: 14700 ng·h/mL
AUC [3, 10]: 11400 ng·h/mL
AUC [3, 11]: 12300 ng·h/mL
AUC [3, 12]: 13900 ng·h/mL
AUC [3, 14]: 11300 ng·h/mL
Cmax [3, 13]: 2170 ng/mL
Cmax [3, 11]: 1970 ng/mL
Cmax [3, 12]: 2160 ng/mL
Cmax [3, 14]: 1760 ng/mL
Change from baseline in body weight, Mean (SD) (Body weight; Day 2): −0.70 (0.679) kg
Change from baseline in body weight, Mean (SD) (Body weight; Day 14): −1.02 (0.845) kg
Effect of metformin on the pharmacokinetics of RE or its metabolites (subjects with T2DM [4]): no effect
Change in fluid balance, Mean (SD) ([5]; Day 2): 203.5 (999.83) ml
Change in fluid balance, Mean (SD) ([5]; Day 13): −42.0 (1262.56) ml
Any AE (subjects with T2DM [6]; Placebo BID + metformin >=2000 mg/day, 13 days, N = 17): 3 (18%) N(%)
Diarrhoea (subjects with T2DM [6]; [15]): 1 (6%) N(%)
Dizziness (subjects with T2DM [6]; [15]): 0 N(%)
Dyslipidemia (subjects with T2DM [6]; [15]): 0 N(%)
Supraventricular tachycardia (subjects with T2DM [6]; [15]): 0 N(%)
Thirst (subjects with T2DM [6]; [15]): 1 (6%) N(%)
Vomiting (subjects with T2DM [6]; [15]): 0 N(%)
Subjects with hypoglycemic laboratory events (subjects with T2DM [6]; placebo + metformin group, mild, resolved without intervention): one
Weighted mean plasma glucose following OGTT, Mean (SD) (subjects with T2DM [7]; Day 1 (baseline)): 12.65 (3.306) mmol/L
Weighted mean plasma insulin following OGTT, Mean (SD) (subjects with T2DM [7]; Day 13): 162.97(97.374) pmol/L
Weighted mean plasma glucose, change from baseline, Mean (SD) (subjects with T2DM [7]): −0.10 (1.572) mmol/L
Weighted mean plasma insulin, change from baseline, Mean (SD) (subjects with T2DM [7]): −13.88(42.349) pmol/L

Cc1c(Cc2ccc(OC(C)C)cc2)c(O[C@@H]2O[C@H](CO)[C@@H](O)[C@H](O)[C@H]2O)nn1C(C)C [Remogliflozin, remogliflozin]
AUC(0-tau) accumulation ratio Day 13 versus Day 1, point estimate (90% CI) ([8]; RE 500 mg + Metformin): 1.00 (0.907–1.10)
AUC(0-tau) accumulation ratio Day 13 versus Day 1, point estimate (90% CI) ([8]; RE 500 mg + Metformin, listed as remogliflozin): 1.00 (0.91, 1.10)
AUC(0-tau) accumulation ratio Day 13 versus Day 1, point estimate (90% CI) ([8]; RE 750 mg + Metformin): 0.82 (0.755–0.899)
AUC(0-tau) accumulation ratio Day 13 versus Day 1, point estimate (90% CI) ([8]; RE 750 mg + Metformin, listed as remogliflozin): 0.82 (0.755, 0.899)
AUC [8, 16]: 4890 ng·h/mL
Cmax [8, 16]: 2000 ng/mL
Tmax ([8]; oral, 500 mg, Day 1, after RE 500 mg BID + metformin, N = 16, read-out: tmax, median (range)): 0.77 h
AUC [8, 17]: 4930 ng·h/mL
Cmax [8, 17]: 1490 ng/mL
Tmax ([8]; oral, 500 mg, Day 13, after RE 500 mg BID + metformin, N = 15, read-out: tmax, median (range)): 3 h
Tmax ([8]; oral, 500 mg, RE 500 mg group, read-out: Time of peak concentrations (range)): 0.5 to 6 h
AUC [8, 18]: 8520 ng·h/mL
Cmax [8, 18]: 4010 ng/mL
Tmax ([8]; oral, 750 mg, Day 1, after RE 750 mg BID + metformin, N = 17, read-out: tmax, median (range)): 0.75 h
AUC [8, 19]: 7000 ng·h/mL
Cmax [8, 19]: 2510 ng/mL
Tmax ([8]; oral, 750 mg, Day 13, after RE 750 mg BID + metformin, N = 16, read-out: tmax, median (range)): 1.3 h
Tmax ([8]; po, after concomitant oral administration of RE with metformin (discussion), read-out: Time of peak concentration (range)): 0.5 to 4 h
